One data set has as its system mouse tumor. Description: In vivo PAT of mouse tumor after intratumoral injection. As to the method:
In vivo experiments were carried with mouse tumor model. Six to eight week old BALB/c nude mice (CAnN.Cg-Foxn1nu/Crl) were purchased from Charles River and acclimated for 7 to 10 days. Supplemental estrogen (2 μg of 17β-estradiol valerate/week) was placed subcutaneously at least 1 week prior to tumor implantation. Mice were subcutaneously inoculated with 2×10^7 BT474 cells on the abdominal wall. Experiments were conducted 7-10 days following implantation, after the tumors had reached approximately 10 mm in size.
A volume of 30 μL of nanoparticle suspension (10 mg/mL for PHF and 0.45 mg/mL for CP-0.25) was injected into the mouse tumor. The mouse was placed in the water tank on an inclined plane with its head above the water surface. The PAT instrumentation for in vivo experiments was similar to that described for in vitro experiments, except that acoustic signals were collected over 300° range, giving a total of 100 measurements for each trial. PAT images of mouse tumor were obtained before and after injecting nanoparticles.

The nature of another data set: Water solubility. It counts as physicochemical.

Data on one substance can be found in patent US8883124B2, “Use of fullerenes in photoacoustic imaging” (University of Florida Research Foundation, Inc., priority 2007, dated 2014).

For Polyhydroxy fullerenes [PHF], the “PAT signal in the region of the tumor after injection” value in the data set on mouse tumor (mouse tumor (BT474, BALB/c nude mice), intratumoral injection of 30 μL of 10 mg/mL, before vs after) is on record as “large increase in PAT signal”. Moreover, the “contrast with the tumor and surrounding non-tumoral tissue in vivo using PAT” value with mouse tumor (mouse tumor, 30 μL intratumoral, 10 mg/mL for PHF and 0.45 mg/mL for CP-0.25) is reported as “excellent contrast”. Moreover, the water solubility entry in “Water solubility” is “water-soluble”.
